26 compounds from PubChem BioAssay AID330 (DTP/NCI, 2004) can be followed below.

Where “and” joins values, the source holds several entries; their conditions need not be identical. Identical values can stand only once. Toxic doses and inconclusive results are not listed.

The assay concerns P388 leukemia ip, CD2F1 mice, survival T/C. In words: NCI In Vivo Anticancer Drug Screen. Data for tumor model P388 Leukemia (intraperitoneal) in CD2F1 (CDF1) mice. As to conditions: endpoint: median survival time, higher = longer survival. Summed up: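 Mice carrying the transplanted tumor received test compound or vehicle. Survival was recorded in each group, and the value is the treated-group measurement divided by that of the vehicle-treated control group.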

The mark [1] stands for this setting: dose: 25.0 mg/kg/injection, schedule: Q04DX003 (ip), vehicle: saline with Tween-80.
Where [2] appears, read: dose: 50.0 mg/kg/injection, schedule: Q01DX009 (ip), vehicle: saline with Tween-80.
Setting [3] is: dose: 100.0 mg/kg/injection, schedule: Q01DX009 (ip), vehicle: saline with Tween-80.
The mark [4] stands for this setting: dose: 100.0 mg/kg/injection, schedule: Q04DX003 (ip), vehicle: saline with Tween-80.
Where [5] appears, read: dose: 200.0 mg/kg/injection, schedule: Q01DX009 (ip), vehicle: saline with Tween-80.
[6] abbreviates: dose: 200.0 mg/kg/injection, schedule: Q04DX003 (ip), vehicle: saline with Tween-80.
Where [7] appears, read: dose: 400.0 mg/kg/injection, schedule: Q01DX009 (ip), vehicle: saline with Tween-80.
Setting [8] is: dose: 100.0 mg/kg/injection, schedule: Q04DX003 (ip), vehicle: Klucel (hydroxypropylcellulose) (HPC).
[9] abbreviates: dose: 200.0 mg/kg/injection, schedule: Q04DX003 (ip), vehicle: Klucel (hydroxypropylcellulose) (HPC).
Where [10] appears, read: dose: 50.0 mg/kg/injection, schedule: Q01DX005 (ip), vehicle: saline with Tween-80.
[11] abbreviates: dose: 100.0 mg/kg/injection, schedule: Q01DX005 (ip), vehicle: saline with Tween-80.
[12] abbreviates: dose: 200.0 mg/kg/injection, schedule: Q01DX005 (ip), vehicle: saline with Tween-80.
Setting [13] is: dose: 60.0 mg/kg/injection, schedule: Q01DX005 (ip), vehicle: saline with Tween-80.
Setting [14] is: dose: 400.0 mg/kg/injection, schedule: Q04DX003 (ip), vehicle: saline with Tween-80.
Where [15] appears, read: dose: 50.0 mg/kg/injection, schedule: Q01DX005 (ip), vehicle: saline.
[16] abbreviates: dose: 100.0 mg/kg/injection, schedule: Q01DX005 (ip), vehicle: saline.
[17] abbreviates: dose: 200.0 mg/kg/injection, schedule: Q01DX005 (ip), vehicle: saline.

`C[C@]12C=C[C@@]3(CC[C@@H]4[C@](C)(CO)[C@H](O)CC[C@@]4(C)[C@@H]3CC1)C2`: the T/C (dose: 3.5 mg/kg/injection, schedule: Q01DX005 (ip), vehicle: Klucel (hydroxypropylcellulose) (HPC)) was 89 % of control; the T/C (dose: 7.0 mg/kg/injection, schedule: Q01DX005 (ip), vehicle: Klucel (hydroxypropylcellulose) (HPC)) was 100 % of control; the T/C (dose: 14.0 mg/kg/injection, schedule: Q01DX005 (ip), vehicle: Klucel (hydroxypropylcellulose) (HPC)) was 92 % of control; the T/C (dose: 28.0 mg/kg/injection, schedule: Q01DX005 (ip), vehicle: Klucel (hydroxypropylcellulose) (HPC)) was 96 % of control.
For `CC1CN1S(=O)(=O)N1CC1C` (stereo not given), the T/C (dose: 11.0 mg/kg/injection, schedule: Q04DX003 (ip), vehicle: saline with Tween-80) is 110 % of control; the T/C (dose: 16.5 mg/kg/injection, schedule: Q04DX003 (ip), vehicle: saline with Tween-80) is 155 % of control; the T/C (dose: 20.0 mg/kg/injection, schedule: Q01DX009 (ip), vehicle: saline with Tween-80) was 209 % of control; the T/C under setting [1] was 195 % of control; the T/C (dose: 37.5 mg/kg/injection, schedule: Q04DX003 (ip), vehicle: saline with Tween-80) is 270 % of control; the T/C (dose: 40.0 mg/kg/injection, schedule: Q01DX009 (ip), vehicle: saline with Tween-80) is 172 % of control.
`CC(=O)Nc1ccccc1C(C)=O`: the T/C under setting [2] is 91 % of control; the T/C (dose: 50.0 mg/kg/injection, schedule: Q04DX003 (ip), vehicle: saline with Tween-80) was 95 % of control; the T/C under setting [3] was 95 % of control; the T/C under setting [4] is 100 % of control; the T/C under setting [5] was 100 % of control; the T/C under setting [6] is 100 % of control.
Consider `Cc1cc2nc(C)nn2c(C)n1`, for which the T/C (dose: 25.0 mg/kg/injection, schedule: Q04DX003 (ip), vehicle: saline) is 104 % of control; the T/C (dose: 50.0 mg/kg/injection, schedule: Q04DX003 (ip), vehicle: saline) was 96 % of control; the T/C (dose: 100.0 mg/kg/injection, schedule: Q04DX003 (ip), vehicle: saline) was 111 % of control and 88 % of control; the T/C (dose: 400.0 mg/kg/injection, schedule: Q04DX003 (ip), vehicle: saline) is 88 % of control.
Take `CC1(C)N=C(N)N=C(N)N1c1ccc(CCc2ccc(S(=O)(=O)F)cc2)c(Cl)c1`: the T/C is 118 % of control under setting [1]; 118 % of control (dose: 33.0 mg/kg/injection, schedule: Q04DX003 (ip), vehicle: saline sonified); 118 % of control (dose: 50.0 mg/kg/injection, schedule: Q04DX003 (ip), vehicle: saline sonified); 113 % of control under setting [4].
In the case of `COc1c(OC(C)=O)ccc2c1C=CCCC2=O`, the T/C is 104 % of control under setting [3], 102 % of control under setting [5] and 102 % of control under setting [7].
As for `NC(=O)Cc1nn[nH]n1`, the T/C by setting is: under setting [8], 106 % of control; under setting [9], 103 % of control; (dose: 400.0 mg/kg/injection, schedule: Q04DX003 (ip), vehicle: Klucel (hydroxypropylcellulose) (HPC)) 107 % of control.
On to `COc1ccc2c(c1O)CN1CCc3cc4c(cc3C1C2)OCO4` (stereo not given), for which the T/C under setting [10] is 104 % of control, the T/C under setting [11] is 110 % of control and the T/C under setting [12] is 115 % of control.
In the case of `CCCCCCCCCCCCCC[N+](C)(CC(=O)[O-])Cc1ccccc1` (stereo not given), the T/C was 108 % of control (dose: 15.0 mg/kg/injection, schedule: Q01DX005 (ip), vehicle: saline with Tween-80); 93 % of control (dose: 30.0 mg/kg/injection, schedule: Q01DX005 (ip), vehicle: saline with Tween-80); 101 % of control under setting [13].
On to `S=P(Oc1cc(Cl)c(Cl)cc1Cl)(N1CCN(c2cccc(Cl)c2)CC1)N1CCN(c2cccc(Cl)c2)CC1`, for which the T/C runs as follows: under setting [10], 97 % of control; under setting [11], 88 % of control; under setting [12], 86 % of control.
The corresponding values for `CCOC(=O)CC1=NC(=Nc2ccc(Cl)c(Cl)c2)SC1` are 103 % of control, 104 % of control and 100 % of control.
`CC(=O)OCC1OC(n2nc(/C=C/c3ccco3)c(=O)n(-c3ccccc3)c2=S)C(OC(C)=O)C(OC(C)=O)C1OC(C)=O` (stereo not given): the T/C is, setting by setting: under setting [4], 107 % of control; under setting [6], 100 % of control; under setting [14], 101 % of control.
With `COc1cc(C2CC(C)(OC)Oc3cc4c(cc32)OCO4)cc(OC)c1OC` (stereo not given), the T/C was 106 % of control and 90 % of control and 95 % of control under setting [13]; 109 % of control and 95 % of control and 97 % of control (dose: 120.0 mg/kg/injection, schedule: Q01DX005 (ip), vehicle: saline with Tween-80).
Regarding `O=C1CCC(=O)N1CO`, the T/C by setting is: (dose: 37.5 mg/kg/injection, schedule: Q01DX009 (ip), vehicle: saline with Tween-80) 107 % of control; (dose: 75.0 mg/kg/injection, schedule: Q01DX009 (ip), vehicle: saline with Tween-80) 120 % of control.
Consider `CCCCCCCC(C)c1cc(N)c(C)cc1[N+](=O)[O-]` (stereo not given), for which the T/C (dose: 25.0 mg/kg/injection, schedule: Q04DX002 (ip), vehicle: Klucel (hydroxypropylcellulose) (HPC)) is 98 % of control and the T/C (dose: 50.0 mg/kg/injection, schedule: Q04DX002 (ip), vehicle: Klucel (hydroxypropylcellulose) (HPC)) was 89 % of control.
Turning to `O=C1CCC2OC3CCC(=O)N3CN12` (stereo not given), the T/C under setting [10] was 97 % of control, the T/C under setting [11] is 98 % of control and the T/C under setting [12] was 98 % of control.
Regarding `COC1OC(CO)C2OC(C)(C)OC12` (stereo not given), the T/C reads like this: (dose: 50.0 mg/kg/injection, schedule: Q01DX005 (ip), vehicle: suspension in saline) 101 % of control; (dose: 100.0 mg/kg/injection, schedule: Q01DX005 (ip), vehicle: suspension in saline) 106 % of control; (dose: 200.0 mg/kg/injection, schedule: Q01DX005 (ip), vehicle: suspension in saline) 101 % of control.
As to `c1ccc2c3c(ccc2c1)CC1CCCN1C3` (stereo not given), the T/C is 100 % of control under setting [8] and 103 % of control under setting [9].
Take `O=C(NC(=O)C(F)(F)C(F)(F)C(F)(F)F)Nc1ccc(F)c(Cl)c1`: the T/C was 107 % of control under setting [2], 99 % of control under setting [3] and 105 % of control under setting [5].
Turning to `COC(=O)c1[nH]c(=O)c2ccc([N+](=O)[O-])cc2c1O`, the T/C was 86 % of control under setting [2], 88 % of control under setting [3] and 86 % of control under setting [5].
Take `NC(CSS(=O)(=O)O)C(=O)O` (stereo not given): the T/C by setting is: under setting [15], 101 % of control; under setting [16], 106 % of control; under setting [17], 101 % of control.
Regarding `CC(C)(C)N1CCOCN2CCCCC2CCN(C(C)(C)C)CCOCN2CCCCC2CC1` (stereo not given), the T/C under setting [15] is 100 % of control, the T/C under setting [16] is 99 % of control and the T/C under setting [17] was 100 % of control.
Regarding `CC(C)n1c(=S)[nH]c2ccccc2c1=O`, the T/C by setting is: under setting [3], 90 % of control; under setting [4], 95 % of control; under setting [5], 90 % of control; under setting [6], 95 % of control; under setting [7], 95 % of control; under setting [14], 91 % of control.
As to `COCCCN(Cc1cc(OC)c(OC)c(OC)c1)C(=S)Nc1cccc(Cl)c1`, the T/C runs as follows: (dose: 50.0 mg/kg/injection, schedule: Q01DX009 (ip), vehicle: saline) 92 % of control; (dose: 100.0 mg/kg/injection, schedule: Q01DX009 (ip), vehicle: saline) 90 % of control; (dose: 200.0 mg/kg/injection, schedule: Q01DX009 (ip), vehicle: saline) 94 % of control.
For `CCCCN(CCCC)C(Cl)=NCCC`, the T/C runs as follows: (dose: 50.0 mg/kg/injection, schedule: Q01DX009 (ip), vehicle: Klucel (hydroxypropylcellulose) (HPC)) 94 % of control; (dose: 100.0 mg/kg/injection, schedule: Q01DX009 (ip), vehicle: Klucel (hydroxypropylcellulose) (HPC)) 93 % of control.
Consider `O=C1CCC(=O)N1CN(Cc1ccccc1)Cc1ccccc1`, for which the T/C (dose: 60.0 mg/kg/injection, schedule: Q01DX005 (ip), vehicle: Klucel (hydroxypropylcellulose) (HPC)) is 100 % of control; the T/C (dose: 120.0 mg/kg/injection, schedule: Q01DX005 (ip), vehicle: Klucel (hydroxypropylcellulose) (HPC)) was 97 % of control; the T/C (dose: 240.0 mg/kg/injection, schedule: Q01DX005 (ip), vehicle: Klucel (hydroxypropylcellulose) (HPC)) was 103 % of control.
